Assay results reported in US20090088380A1, “GHRH ANALOGS AND THERAPEUTIC USES THEREOF” (priority 2007, published 2009).
Where “and” joins values, the source holds several entries; their conditions need not be identical. Identical values can stand only once. Non-standard residues stand in square brackets, D forms with d. Residues, ends and D or L forms follow the SMILES beside them.

Legend:
Leptin and adiponectin = assay: Phase II CKD: fat regulation (leptin, adiponectin); type: in vivo, human
Experimental: Leptin (ng/mL) and adiponectin (μg/mL) were measured at every visit from baseline to Day 28 as markers for regulating metabolism. Samples were analysed at the Department of Nephrology, Endocrinology and Metabolic Diseases, Silesian University School of Medicine, Katowice.

[1] = test system: malnourished subjects with CKD; assay: Phase II CKD: adverse events; type: in vivo, human; conditions: 28 days
Text: The number and nature of AEs was consistent with subjects with chronic renal failure. Although the number of AEs reported by subjects in the GHRH(1-29)NH2 synthetic analog group was higher than the number reported by subjects in the placebo group (70 vs. 58), there was no clear pattern to distinguish the treatments from each other in safety terms. This might be partly due to the relatively low number of subjects in the study but, overall, the 2 groups were generally balanced with respect to the nature and incidence of AEs.

[2] = test system: malnourished subjects with CKD; assay: Phase II CKD: 24-hour urine collection, creatinine and urea clearance, GFR, PNA; type: in vivo, human; conditions: for Creatinine (24-hour urine): mean (SD) / Creatinine clearance: median / GFR: median / Urea (24-hour urine): mean (SD) / Urea clearance: mean (SD) / nPNA: mean (SD): ITT population
Experimental: Subjects collected 24-hour urine samples at screening, baseline (Days 0 to 1) and Days 28 to 29. All of the samples were analysed for creatinine and urea clearance (mL/min). The samples collected at baseline and on Day 28 were also analysed for proteinuria (Coumassie method), PNA, sodium, potassium, chloride, calcium and phosphate. GFR was calculated using the Cockcroft-Gault formula: […]

[3] = test system: IGF-1, IGFBP-1 and IGFBP-3; assay: Phase II CKD: total IGF-1, IGFBP-1 and IGFBP-3; type: in vivo, human
Experimental: Total IGF-1 (ng/mL), insulin-like growth factor binding protein (IGFBP-1 and IGFBP-3, ng/mL) were measured at every visit from baseline to Day 28 as markers for tissue and cell growth and proliferation. Samples were analysed at the Department of Nephrology, Endocrinology and Metabolic Diseases, Silesian University School of Medicine, Katowice using a Medgenix Diagnostics kit.

in vivo = conditions: Beagle, dog
Experimental: No mortality, adverse clinical sign, effects on body weight, food consumption, opthalmology, haematology, coagulation, clinical chemistry, urinalysis or organ weights were noted following the dosing or recovery periods. Microscopic findings at the injection sites were noted among treated animals, however, the changes were reversed following the recovery period. A no adverse effect level for this study was determined to be 3 mg/kg.

[4] = GHRH vs placebo, Day 28, ANOVA for repeated measures

CC[C@H](C)[C@H](NC(=O)[C@H](C)NC(=O)[C@H](CC(=O)O)NC(=O)[C@@H](C)NC(=O)[C@@H](N)Cc1ccc(O)cc1)C(=O)N[C@@H](Cc1ccccc1)C(=O)N[C@H](C(=O)N[C@@H](CC(N)=O)C(=O)N[C@@H](CO)C(=O)N[C@H](Cc1ccc(O)cc1)C(=O)N[C@@H](CCCNC(=N)N)C(=O)N[C@@H](CCCCN)C(=O)N[C@H](C(=O)N[C@@H](CC(C)C)C(=O)N[C@H](C)C(=O)N[C@@H](CCC(N)=O)C(=O)N[C@@H](CC(C)C)C(=O)N[C@@H](CO)C(=O)N[C@@H](C)C(=O)N[C@@H](CCCNC(=N)N)C(=O)N[C@@H](CCCCN)C(=O)N[C@@H](CCCCN)C(=O)N[C@@H](CC(C)C)C(=O)N[C@@H](CCC(N)=O)C(=O)N[C@@H](CC(=O)O)C(=O)N[C@H](C(=O)N[C@@H](CCSC)C(=O)N[C@@H](CO)C(=O)N[C@@H](CCCNC(=N)N)C(N)=O)[C@@H](C)CC)C(C)C)[C@@H](C)O [GHRH analog #5, [D-Ala^2, D-Tyr^10, D-Ala^15, Lys^22] hGHRH(1-29)-NH2] (H-Y[dA]DAIFTNS[dY]RKVL[dA]QLSARKKLQDIMSR-NH2)
Adiponectin: median (95% CI) (Leptin and adiponectin; ITT, Baseline): 20604 ng/mL
Leptin: mean (SD) (Leptin and adiponectin; ITT, Baseline): 23.80 (34.29) ng/mL
Adiponectin: median (95% CI) (Leptin and adiponectin; ITT, Day 7): 21293 (14535; 27438) ng/mL
Adiponectin: median (95% CI) (Leptin and adiponectin; ITT, Day 14): 21548 (15810; 27030) ng/mL
Adiponectin: median (95% CI) (Leptin and adiponectin; ITT, Day 21): 21905 (15810; 31365) ng/mL
Adiponectin: median (95% CI) (Leptin and adiponectin; ITT, Day 28): 20553 (16320; 27030) ng/mL
Leptin: mean (SD) (Leptin and adiponectin; ITT, Day 28): 16.81 (21.81) ng/mL
Leptin: ratio of means (Leptin and adiponectin; ITT, Day 28, vs placebo): 0.866
Leptin reduction from baseline, range in all but two patients (Leptin and adiponectin; day 28): 10-70%
Mean leptin as % of the mean in placebo group (Leptin and adiponectin; in vivo): 70%
Number of AEs reported [1]: 70
Creatinine (24-hour urine): mean (SD) ([2]; Baseline): 10.44 (5.10) mmol/24 hours
Creatinine clearance: median ([2]; Baseline): 24.92 mL/min/1.73 m^−2
GFR: median ([2]; Baseline): 19.37 ml/min/1.73 m^−2
Urea (24-hour urine): mean (SD) ([2]; Baseline): 343.53 (170.39) mmol/24 hours
Urea clearance: mean (SD) ([2]; Baseline): 11.858 (5.820) mL/min/1.73 m^−2
nPNA: mean (SD) ([2]; Baseline): 2.3648 (1.1530) g/kg body weight/24 h
Mean urea clearance rate ([2]; Day 28): 11.24 mL/min/1.73 m^−2
Median GFR ([2]; Day 28): 18.23 mL/min/1.73 m^−2
Median creatinine clearance ([2]; Day 28): 23.78 mL/min/1.73 m^−2
Creatinine (24-hour urine): mean (SD) ([2]; Day 28): 9.68 (3.29) mmol/24 hours
Creatinine clearance: median ([2]; Day 28): 23.78 mL/min/1.73 m^−2
GFR: median ([2]; Day 28): 18.23 ml/min/1.73 m^−2
Urea (24-hour urine): mean (SD) ([2]; Day 28): 235.87 (88.51) mmol/24 hours
Urea clearance: mean (SD) ([2]; Day 28): 11.244 (4.200) mL/min/1.73 m^−2
nPNA: mean (SD) ([2]; Day 28): 1.6198 (0.5892) g/kg body weight/24 h
Urea clearance: adjusted difference or comparison [2, 4]: 2.28 mL/min/1.73 m^−2
nPNA: adjusted difference or comparison [2, 4]: −0.553 g/kg body weight/24 h
nPNA: mean value ([2]; after decrease (day 28)): 1.6198 g/kg body weight/24 h
Mean urea clearance rate ([2]; baseline): 11.86 mL/min/1.73 m^−2
Median GFR ([2]; baseline): 19.37 mL/min/1.73 m^−2
Median creatinine clearance ([2]; baseline): 24.92 mL/min/1.73 m^−2
nPNA: mean value ([2]; before decrease (baseline)): 2.3648 g/kg body weight/24 h
Urea clearance: adjusted mean difference between GHRH and placebo arm ([2]; day 28): 2.28 ml/min/1.73 m^2
nPNA: adjusted mean difference between GHRH and placebo arm ([2]; day 28): −0.553 g/kg body weight/24 h
GFR: improvement against baseline, one patient ([2]; one patient): 78.56%
Creatinine clearance: improvement against baseline, individual patients ([2]; two patients): 124.63% and 115.65%
Urea clearance: improvement against baseline, individual patients ([2]; two patients, listed as GHRH(1-29)NH2 synthetic analog): 123.99% and 103.49%
Mean decrease in IGFBP-1 concentration ([3]; 4-week treatment): 26.7%
IGFBP-3: adjusted difference between treatments ([3]; ITT): 580.85 ng/mL
IGFBP-1: mean (SD) ([3]; ITT, Baseline): 74.98 (39.13) ng/mL
IGFBP-3: median ([3]; ITT, Baseline): 4039.6 (813.7) ng/mL
Total IGF-1: median (95% CI) ([3]; ITT, Baseline): 335.8 (—) ng/mL
Total IGF-1: median (95% CI) ([3]; ITT, Baseline, listed as GHRH(1-29)NH2 synthetic analog): 335.8 ng/mL
Total IGF-1: median (95% CI) ([3]; ITT, Day 7): 576.0 (494.10; 828.70) ng/mL
Total IGF-1: median (95% CI) ([3]; ITT, Day 14): 611.8 (490.40; 913.60) ng/mL
Total IGF-1: median (95% CI) ([3]; ITT, Day 21): 729.8 (497.10; 913.50) ng/mL
IGFBP-1: mean (SD) ([3]; ITT, Day 28): 54.94 (30.72) ng/mL
IGFBP-3: median ([3]; ITT, Day 28): 5130.8 (961.0) ng/mL
Total IGF-1: median (95% CI) ([3]; ITT, Day 28): 684.2 (564.10; 881.80) ng/mL
Total IGF-1: median (95% CI) ([3]; ITT, Day 28, listed as GHRH(1-29)NH2 synthetic analog): 684.2 ng/mL
IGFBP-1: adjusted difference between GHRH and placebo ([3]; ITT, listed as GHRH(1-29)NH2 synthetic analog): 28.40 ng/mL
Median total IGF-1: increase ([3]; baseline to day 28): 104%
NOAEL at 672 h (in vivo): 3 mg/kg
